Laboratory results as given in patent publication US20100311674A1, “PHARMACEUTICAL COMPOSITIONS WITH A MECHANISM OF MULTI-TARGET RECEPTOR RETROACTION FOR TREATING DEPRESSION” (Yu-Fen Chi, priority 2007, published 2010).

Columns and labels:
[1] = test system: rat olfactory bulb lesion model; experiment: Open field activity experiment of the rat olfactory bulb lesion model (Experiment 7); type: in vivo; details: 2 mg/kg/d into the stomach, 24 days; within 3 minutes
Method: Olfactory bulb lesion model: Health Wistar male rats, secondary, 330±20 g of body weight, are purchased from Beijing Vital River Experimental Animal Technology Ltd. Co. (The quality certificate number: SCXK (JING) 2002-2003).
(§1) The above pharmaceuticals are prepared with 0.5% of sodium carboxymethylcellulose (CMC-Na) for feeding into the stomach. Benzylpenicillin sodium for injection is the product of North China Pharmaceutical Huasheng Co. Ltd. (Lot: S0511204), and norepinephrine (NE) and 5-hydrotryptamine (5-HT) standards are the products of Sigma Co. Other reagents are all marketed.
7.4.1 Group division and administration of drug: The rats are grouped randomly into 6 groups. 1. […]
7.5.1 Open field activity experiment: The open field activity box (1 m×1 m×0.4 m) is constructed by the light blue plywood and the aluminum alloy frame. […] The rat is placed in the center of the central grids, and the rat's cross-grid number (the number of crossing into the neighboring gird more than 3 claws) and rat's standing number (two forelimbs leaving the ground for more than 1 cm) are calculated/observed within 3 minutes.
7.6 Statistic calculation: The experimental data are represented as X+SD, and the experimental result is calculated as ANOVA by SPSS 11.5 statistic software.

[2] = test system: unpredictable long-term stimulus model; experiment: Volume test of drinking sucrose, unpredictable long-term stimulus model (Experiment 8); type: in vivo, rat; details: 2 mg/kg/d into the stomach, 24 days; 1% sucrose for 1 hour
Method: (§2) Unpredictable long-term stimulus model: Health Wistar male rats, secondary, 240˜270 g of body weight, are purchased from Beijing Vital River Experimental Animal Technology Ltd. Co. (The quality certificate number: SOCK (JING) 2002-2003).
as §1
(§3) 8.4.1 Group division and administration of drug: The rats are grouped randomly into 6 groups. 1. False therapy group; 2. model group (control); 3. high dose of Embodiment 4 (60 mg/kg/d); 4. middle dose of Embodiment 4 (30 mg/kg/d); 5. low dose of Embodiment 4 (15 mg/kg/d); and 6. […]
8.5.5 Volume test of drinking sucrose: The sucrose-intake volume of the rats are compared. […] The drinking volumes are determined before the stimulus and after 3 weeks of the stimulus. […] The differences between the bottle weight before and after the rat drinking sucrose for 1 hour are measured and recorded, and the sucrose-drinking volume for each time is calculated. […]
(§4) 8.6 Statistic calculation: The experimental data are represented as […], and the experimental result is calculated as ANOVA by SPSS 11.5 statistic software.

[3] = test system: unpredictable long-term stimulus model; experiment: Rat swimming by compulsion, unpredictable long-term stimulus model (Experiment 8); type: in vivo; details: 2 mg/kg/d into the stomach, 24 days; 1 h after dose; last 5 minutes
Method: as §2, §1, §3
8.5.3 Rat swimming by compulsion: This experiment is proceeded for two days after the last administration of drug. […] After 1 hour of administration of drug, the rat is placed in the tank, and the time of non-movement of the rat for the last 5 minutes is recorded.
as §4

ICR mice = experiment: Mouse swimming by compulsion experiment (Experiment 10); type: in vivo
Method: 10.1 Experiment pharmaceuticals: The pharmaceutical of Embodiment 5 is provided by Beijing Wonner Biotech. […] Above-mentioned pharmaceuticals are prepared with physiological saline for feeding into the stomach. 10.2 Experimental animals: ICR mice, male, 20.0±1 g of body weight, secondary, are provided by the Experimental Animal Science Department of Capital Medical University, Beijing. The quality certificate number of mice is SCXK (JING) 2006-2008. 10.4 Experimental method: The mouse group and the administration of drugs are like the mouse tail-hanging experiment. The experiment is proceeded in tested mouse in each group after 1 hour of the administration of drug. The mouse is trained to swim for 15 minutes before the experiment and on the eighth day. After 24 hours, the experiment is performed. The mouse is placed in the glass tank having 10 cm of the water depth, 14 cm of the diameter and at 25° C. of the water temperature. The accumulative time of non-movement of the mouse in the water for the last 5 minutes is recorded. 10.5 Statistic calculation: The experimental data are represented as X+SD, and the experimental result is calculated as one-way ANOVA by SPSS 11.5 statistic software.

**Q.** `Fc1ccc([C@@H]2CCNC[C@H]2COc2ccc3c(c2)OCO3)cc1` [Paroxetine] was tested. Which “Horizontal movement (cross-grid number)” value [1] did it give?
**A.** 55.36 ± 25.96

**Q.** What about the “Vertical movement (standing number)” value [1] of the same molecule?
**A.** 14.36 ± 5.55

**Q.** What about the Sucrose-intake volume [2] of the same molecule?
**A.** 26.29 ± 4.87 g

**Q.** And the Time of non-movement [3]?
**A.** 31.38 ± 19.59 s

**Q.** What about the Time of non-movement (ICR mice; 3 mg/kg/d into the stomach, 1 h after dose, water 25° C., last 5 minutes) of the same molecule?
**A.** 57.80 ± 38.07 s

**Q.** What about the “Effect on accumulative time of non-movement, swimming by compulsion (in words)” value (ICR mice; high, middle and low doses of Embodiment 5, Paroxetine) of the same molecule?
**A.** obviously decrease the accumulative time of non-movement
